Where two headings read alike, the source gives them in different places.
What was measured:
[1] = target: SOS1 (Homo sapiens (Human), UniProt Q07889); assay: Ras-SOS interaction assay (HTRF); assay type: biochemical
[2] = system: MIA PaCa-2 cells (K-Ras G12C); assay: Ras-SOS cellular growth inhibition assay (CellTiter-Glo, 3D); assay type: cell-based; details: Homo sapiens
Method in brief: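 Growth read by CellTiter-Glo luminescence about 5 days after dosing with 3-fold dilutions (9 points), added one day post-seeding. Cells: MIA PaCa-2, 3D culture on ultra-low-attachment surface, medium DMEM/Ham's F12 plus 10% FCS and 2.5% horse serum; IC50 by four-parameter fit.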

[3] = system: NCI-H1975 cells (EGFR T790M L858R); assay: EGFR-SOS cellular inhibition assay (CellTiter-Glo, 3D); assay type: cell-based; details: Homo sapiens
[4] = K-RasG13D utilized, read-out: IC50 inhibition of SOS
[5] = K-RasG13D, read-out: IC50 value against SOS1
[6] = MIA PaCa-2, 120 h, MIA PaCa-2, 3D proliferation, about 5 days, read-out: Bio-Cell-Prolif-3D (MiaPaca2 IC50)
[7] = MIA PaCa-2, MIA PaCa-2, read-out: IC50 in inhibiting MIA PaCa-2 cell growth
[8] = 120 h, NCI-H1975, 3D proliferation, about 5 days, read-out: Bio-Cell-Prolif-3D (H1975 IC50)
[9] = NCI-H1975, EGFR T790M L858R, read-out: IC50 in inhibiting growth of NCI-H1975 cell line

SOS1, sequence (Q07889 564-1049): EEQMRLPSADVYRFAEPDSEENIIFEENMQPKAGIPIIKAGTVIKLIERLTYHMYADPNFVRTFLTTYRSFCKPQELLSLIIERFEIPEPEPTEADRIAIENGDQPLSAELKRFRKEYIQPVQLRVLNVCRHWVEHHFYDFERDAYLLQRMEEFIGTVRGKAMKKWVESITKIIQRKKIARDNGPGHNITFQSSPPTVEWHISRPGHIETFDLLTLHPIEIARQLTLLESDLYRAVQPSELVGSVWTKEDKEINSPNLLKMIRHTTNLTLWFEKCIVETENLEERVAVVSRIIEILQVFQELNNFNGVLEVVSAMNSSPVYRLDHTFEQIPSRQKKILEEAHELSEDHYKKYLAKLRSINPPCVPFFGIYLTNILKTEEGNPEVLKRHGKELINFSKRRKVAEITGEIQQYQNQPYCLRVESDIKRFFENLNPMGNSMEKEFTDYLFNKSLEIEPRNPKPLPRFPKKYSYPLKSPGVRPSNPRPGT

IC50 [1, 4]	IC50 [1, 5]	IC50 [2, 6]	IC50 [2, 7]	IC50 [3, 8]	IC50 [3, 9]	SMILES
< 100 nM	< 50 nM	≤ 1000 nM	< 500 nM	≤ 1000 nM	< 500 nM	Cc1nc(N[C@H](C)c2cccc(C(F)(F)F)c2F)c2cc(C3(C#N)CC3)c(N3CCN(C(C)C)CC3)nc2n1 [Compound 346, (R)-1-(4-((1-(2-fluoro-3-(trifluoromethyl)phenyl)ethyl)amino)-7-(4-isopropylpiperazin-1-yl)-2-methylpyrido[2,3-d]pyrimidin-6-yl)cyclopropane-1-carbonitrile]
< 100 nM	< 50 nM	≤ 1000 nM	< 500 nM	≤ 1000 nM	< 500 nM	CCN1CCN(c2cc3c(N[C@H](C)c4cccc(C(F)(F)F)c4F)nc(C)nc3nc2OC)CC1 [Compound 383, (R)-6-(4-ethylpiperazin-1-yl)-N-(1-(2-fluoro-3-(trifluoromethyl)phenyl)ethyl)-7-methoxy-2-methylpyrido[2,3-d]pyrimidin-4-amine]
< 100 nM		≤ 1000 nM		≤ 1000 nM	< 500 nM	COc1nc2ncnc(N[C@H](C)c3cccc(C(F)F)c3F)c2cc1C1(C#N)CC1 [Compound 184, (R)-1-(4-((1-(3-(difluoromethyl)-2-fluorophenyl)ethyl)amino)-7-methoxypyrido[2,3-d]pyrimidin-6-yl)cyclopropane-1-carbonitrile]
< 100 nM		≤ 1000 nM		≤ 1000 nM		COc1nc2nc(C)nc(N[C@H](C)c3cccc(C(F)F)c3F)c2cc1N1CCNCC1 [Compound 110, (R)-N-(1-(3-(difluoromethyl)-2-fluorophenyl)ethyl)-7-methoxy-2-methyl-6-(piperazin-1-yl)pyrido[2,3-d]pyrimidin-4-amine]
< 100 nM	< 50 nM	≤ 1000 nM		≤ 1000 nM	< 500 nM	COc1nc2nc(OC[C@@H]3CCCN3C)nc(N[C@H](C)c3cccc(C(F)F)c3F)c2cc1C1(C#N)CC1 [Compound 326, 1-(4-(((R)-1-(3-(difluoromethyl)-2-fluorophenyl)ethyl)amino)-7-methoxy-2-(((S)-1-methylpyrrolidin-2-yl)methoxy)pyrido[2,3-d]pyrimidin-6-yl)cyclopropane-1-carbonitrile]
< 100 nM	< 50 nM	≤ 1000 nM	< 500 nM	≤ 1000 nM	< 500 nM	C[C@@H](Nc1ncnc2nc(Cl)c(N3CCS(=O)(=O)CC3)cc12)c1cccc(C(F)F)c1F [Compound 261, (R)-4-(7-chloro-4-((1-(3-(difluoromethyl)-2-fluorophenyl)ethyl)amino)pyrido [2,3-d]pyrimidin-6-yl)thiomorpholine 1,1-dioxide]
< 100 nM	< 50 nM	≤ 1000 nM	< 500 nM	≤ 1000 nM	< 500 nM	Cc1nc(N[C@H](C)c2cccc(C(F)F)c2F)c2cc(N3CCN(C(C)C)CC3)c(OCCN(C)C)nc2n1 [Compound 359, (R)-N-(1-(3-(difluoromethyl)-2-fluorophenyl)ethyl)-7-(2-(dimethylamino)ethoxy)-6-(4-isopropylpiperazin-1-yl)-2-methylpyrido[2,3-d] pyrimidin-4-amine]
< 100 nM	< 50 nM	≤ 1000 nM	< 500 nM	≤ 1000 nM	< 500 nM	COc1nc2nc(C)nc(N[C@H](C)c3cccc(C(F)(F)F)c3F)c2cc1C1CCN(C(=O)CO)CC1 [Compound 304, (R)-1-(4-(4-((1-(2-fluoro-3-(trifluoromethyl)phenyl)ethyl)amino)-7-methoxy-2-methylpyrido[2,3-d]pyrimidin-6-yl)piperidin-1-yl)-2-hydroxyethan-1-one]
< 100 nM	< 50 nM	≤ 1000 nM	< 500 nM	≤ 1000 nM	< 500 nM	Cc1nc(N[C@H](C)c2cccc(C(F)F)c2F)c2cc(N3CCS(=O)(=O)CC3)c(Cl)nc2n1 [Compound 259, (R)-4-(7-chloro-4-((1-(3-(difluoromethyl)-2-fluorophenyl)ethyl)amino)-2-methylpyrido[2,3-d]pyrimidin-6-yl)thiomorpholine 1,1-dioxide]
< 100 nM	< 50 nM	≤ 1000 nM	< 500 nM	≤ 1000 nM	< 500 nM	COc1nc2nc(C)nc(N[C@H](C)c3cccc(C(F)(F)C4CCN(C(C)C)CC4)c3F)c2cc1C1CCS(=O)(=O)CC1 [Compound 379, (R)-4-(4-((1-(3-(difluoro(1-isopropylpiperidin-4-yl)methyl)-2-fluorophenyl)ethyl)amino)-7-methoxy-2-methylpyrido[2,3-d]pyrimidin-6-yl)tetrahydro-2H-thiopyran 1,1-dioxide]
< 100 nM	< 50 nM	≤ 1000 nM	< 500 nM	≤ 1000 nM	< 500 nM	Cc1nc(N[C@H](C)c2cccc(C(F)(F)F)c2C)c2cc(C3CCS(=O)(=O)CC3)c(Cl)nc2n1 [Compound 388, (R)-4-(7-chloro-2-methyl-4-((1-(2-methyl-3-(trifluoromethyl)phenyl)ethyl)amino)pyrido[2,3-d]pyrimidin-6-yl)tetrahydro-2H-thiopyran 1,1-dioxide]
< 100 nM	< 50 nM	≤ 1000 nM		≤ 1000 nM	< 500 nM	COc1nc2nc(C)nc(N[C@H](C)c3cccc(C(F)(F)C(C)(C)O)c3F)c2cc1N1CCN(C)CC1 [Compound 323, (R)-1,1-difluoro-1-(2-fluoro-3-(1-((7-methoxy-2-methyl-6-(4-methylpiperazin-1-yl)pyrido[2,3-d]pyrimidin-4-yl)amino)ethyl)phenyl)-2-methylpropan-2-ol]
< 100 nM	< 50 nM	1000 to 10000 nM		≤ 1000 nM		COc1nc2nc(C)nc(N[C@H](C)c3cccc(C(F)(F)F)c3F)c2cc1C1CCN(C(=O)C2CN(C)CCO2)CC1 (stereo partly drawn) [Compound 167, (4-(4-(((R)-1-(2-fluoro-3-(trifluoromethyl)phenyl)ethyl)amino)-7-methoxy-2-methylpyrido[2,3-d]pyrimidin-6-yl)piperidin-1-yl)(4-methylmorpholin-2-yl)methanone]
< 100 nM		≤ 1000 nM		1000 to 10000 nM		COCCOc1nc2nc(C)nc(N[C@H](C)c3cccc(C(F)F)c3OCCOC)c2cc1C1CCS(=O)(=O)CC1 [Compound 158, (R)-4-(4-((1-(3-(difluoromethyl)-2-(2-methoxyethoxy)phenyl)ethyl)amino)-7-(2-methoxyethoxy)-2-methylpyrido[2,3-d]pyrimidin-6-yl)tetrahydro-2H-thiopyran 1,1-dioxide]
< 100 nM	< 50 nM	1000 to 10000 nM		≤ 1000 nM		Cc1nc(N[C@H](C)c2cccc(C(F)F)c2F)c2cc(C3CCS(=O)(=O)CC3)c(NC3COC3)nc2n1 [Compound 401, (R)-4-(4-((1-(3-(difluoromethyl)-2-fluorophenyl)ethyl)amino)-2-methyl-7-(oxetan-3-ylamino)pyrido[2,3-d]pyrimidin-6-yl)tetrahydro-2H-thiopyran 1,1-dioxide]
< 100 nM		≤ 1000 nM		≤ 1000 nM		COc1nc2nc(C)nc(N[C@H](C)c3cccc(C(F)F)c3F)c2cc1C1(C#N)CC1 [Compound 101, 1-(4-((R)-1-(2-fluoro-3-(difluoromethyl)phenyl)ethylamino)-7-methoxy-2-methylpyrido[2,3-d]pyrimidin-6-yl)cyclopropanecarbonitrile]
